Measurements: patent US20070010671A1, “Novel quinazoline derivatives and methods of treatment related to the use thereof” (priority 2003, published 2007)

biological target: MCH receptor (Homo sapiens, UniProt Q99705); test: High throughput functional screening FLIPR/FDSS6000: inhibition of MCH-evoked intracellular Ca2+ changes; format: cell-based; details: class by percent of control at 10^-7 M or IC50
Summary of the method: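 Constitutively active non-endogenous MCH-R cells; Fluo4-AM 4 μM, 2.5 mM probenecid, 1 hr, 37° C; cpd 3 min, 37° C; MCH 50 nM (antagonist mode); kinetic Ca2+ read Ex488/Em530, 290 s.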

Structure (SMILES)	class
COc1cccc(NC(=S)NC[C@H]2CC[C@@H](Nc3nc(N(C)C)c4ccccc4n3)CC2)c1 [compound 652]	3 (Class 3: The value of percent of control at 10^−7 M was more than 60% or the value of IC50 was more than 200 nM.)
CN(C)c1nc(N[C@H]2CC[C@@H](CNC(=S)Nc3ccc(OC(F)F)cc3)CC2)nc2ccccc12 [compound 653]	3 (Class 3: The value of percent of control at 10^−7 M was more than 60% or the value of IC50 was more than 200 nM.)
CN(C)c1nc(N[C@H]2CC[C@@H](CNC(=S)Nc3ccc(OC(F)(F)F)cc3)CC2)nc2ccccc12 [compound 654]	3 (Class 3: The value of percent of control at 10^−7 M was more than 60% or the value of IC50 was more than 200 nM.)
CN(C)c1nc(N[C@H]2CC[C@@H](CNC(=S)Nc3ccc(C(F)(F)F)cc3)CC2)nc2ccccc12 [compound 655]	3 (Class 3: The value of percent of control at 10^−7 M was more than 60% or the value of IC50 was more than 200 nM.)
CN(C)c1nc(N[C@H]2CC[C@@H](CNC(=S)Nc3ccc(SC(F)(F)F)cc3)CC2)nc2ccccc12 [compound 656]	3 (Class 3: The value of percent of control at 10^−7 M was more than 60% or the value of IC50 was more than 200 nM.)
CN(C)c1nc(N[C@H]2CC[C@@H](CNC(=S)Nc3ccc(Br)cc3Cl)CC2)nc2ccccc12 [compound 657]	3 (Class 3: The value of percent of control at 10^−7 M was more than 60% or the value of IC50 was more than 200 nM.)
CN(C)c1nc(N[C@H]2CC[C@@H](CNC(=S)Nc3ccc(Br)cc3F)CC2)nc2ccccc12 [compound 658]	3 (Class 3: The value of percent of control at 10^−7 M was more than 60% or the value of IC50 was more than 200 nM.)
CN(C)c1nc(N[C@H]2CC[C@@H](CNC(=S)Nc3ccc(Cl)c(C(F)(F)F)c3)CC2)nc2ccccc12 [compound 659]	3 (Class 3: The value of percent of control at 10^−7 M was more than 60% or the value of IC50 was more than 200 nM.)
CN(C)c1nc(N[C@H]2CC[C@@H](CNC(=S)Nc3ccc(F)c(C(F)(F)F)c3)CC2)nc2ccccc12 [compound 660]	3 (Class 3: The value of percent of control at 10^−7 M was more than 60% or the value of IC50 was more than 200 nM.)
CN(C)c1nc(N[C@H]2CC[C@@H](CNC(=S)Nc3ccc(I)cc3)CC2)nc2ccccc12 [compound 661]	3 (Class 3: The value of percent of control at 10^−7 M was more than 60% or the value of IC50 was more than 200 nM.)
Cc1ccc(Cl)cc1NC(=S)NC[C@H]1CC[C@@H](Nc2nc(N(C)C)c3ccccc3n2)CC1 [compound 662]	2 (Class 2: The value of percent of control at 10^−7 M was from 40% to 60% or the value of IC50 was from 50 nM to 200 nM.)
CN(C)c1nc(N[C@H]2CC[C@@H](CNC(=S)NC3C[C@@H]4CC[C@H]3C4)CC2)nc2ccccc12 (stereo partly drawn) [compound 663, N-[(1S,4R)-bicyclo[2.2.1]hept-2-yl]-N′-[(cis-4-{[4-(dimethylamino)quinazolin-2-yl]amino}cyclohexyl)methyl]thiourea]	2 (Class 2: The value of percent of control at 10^−7 M was from 40% to 60% or the value of IC50 was from 50 nM to 200 nM.)
CN(C)c1nc(N[C@H]2CC[C@@H](CNC(=S)Nc3ccc(NC(=O)OC(C)(C)C)cc3)CC2)nc2ccccc12 [compound 664]	3 (Class 3: The value of percent of control at 10^−7 M was more than 60% or the value of IC50 was more than 200 nM.)
COc1ccc(CCNC(=S)NC[C@H]2CC[C@@H](Nc3nc(N(C)C)c4ccccc4n3)CC2)cc1OC [compound 665, N-[2-(3,4-dimethoxyphenyl)ethyl]-N′-[(cis-4-{[4-(dimethylamino)quinazolin-2-yl]amino}cyclohexyl)methyl]thiourea]	2 (Class 2: The value of percent of control at 10^−7 M was from 40% to 60% or the value of IC50 was from 50 nM to 200 nM.)
CN(C)c1nc(N[C@H]2CC[C@@H](CNC(=S)NCCc3ccc(Cl)cc3)CC2)nc2ccccc12 [compound 666]	3 (Class 3: The value of percent of control at 10^−7 M was more than 60% or the value of IC50 was more than 200 nM.)
CN(C)c1nc(N[C@H]2CC[C@@H](CNC(=S)Nc3cc(Cl)c(Cl)c(Cl)c3Cl)CC2)nc2ccccc12 [compound 667]	3 (Class 3: The value of percent of control at 10^−7 M was more than 60% or the value of IC50 was more than 200 nM.)
CN(C)c1nc(N[C@H]2CC[C@@H](CNC(=S)Nc3cc(Cl)c(Cl)cc3Cl)CC2)nc2ccccc12 [compound 668]	3 (Class 3: The value of percent of control at 10^−7 M was more than 60% or the value of IC50 was more than 200 nM.)
CN(C)c1nc(N[C@H]2CC[C@@H](CNC(=S)Nc3c(Cl)cc(Cl)cc3Cl)CC2)nc2ccccc12 [compound 670, N-[(cis-4-{[4-(dimethylamino)quinazolin-2-yl]amino}cyclohexyl)methyl]-N′-(2,4,6-trichlorophenyl)thiourea]	2 (Class 2: The value of percent of control at 10^−7 M was from 40% to 60% or the value of IC50 was from 50 nM to 200 nM.)
CN(C)c1nc(N[C@H]2CC[C@@H](CNC(=S)Nc3c(F)cc(F)cc3F)CC2)nc2ccccc12 [compound 671]	3 (Class 3: The value of percent of control at 10^−7 M was more than 60% or the value of IC50 was more than 200 nM.)

Structure (SMILES)	class
Cc1cc(C)c(NC(=S)NC[C@H]2CC[C@@H](Nc3nc(N(C)C)c4ccccc4n3)CC2)c(C)c1 [compound 672, N-[(cis-4-{[4-(dimethylamino)quinazolin-2-yl]amino}cyclohexyl)methyl]-N′-mesitylthiourea]	2 (Class 2: The value of percent of control at 10^−7 M was from 40% to 60% or the value of IC50 was from 50 nM to 200 nM.)
Cc1ccc(NC(=S)NC[C@H]2CC[C@@H](Nc3nc(N(C)C)c4ccccc4n3)CC2)c(C)c1 [compound 673]	3 (Class 3: The value of percent of control at 10^−7 M was more than 60% or the value of IC50 was more than 200 nM.)
CCc1cccc(CC)c1NC(=S)NC[C@H]1CC[C@@H](Nc2nc(N(C)C)c3ccccc3n2)CC1 [compound 674, N-(2,6-diethylphenyl)-N′-[(cis-4-{[4-(dimethylamino)quinazolin-2-yl]amino}cyclohexyl)methyl]thiourea]	1 (Class 1: The value of percent of control at 10^−7 M was less than 40% or the value of IC50 was less than 50 nM.)
CC(C)c1cccc(C(C)C)c1NC(=S)NC[C@H]1CC[C@@H](Nc2nc(N(C)C)c3ccccc3n2)CC1 [compound 675]	2 (Class 2: The value of percent of control at 10^−7 M was from 40% to 60% or the value of IC50 was from 50 nM to 200 nM.)
Cc1ccc(NC(=S)NC[C@H]2CC[C@@H](Nc3nc(N(C)C)c4ccccc4n3)CC2)c(Br)c1 [compound 676]	3 (Class 3: The value of percent of control at 10^−7 M was more than 60% or the value of IC50 was more than 200 nM.)
CN(C)c1nc(N[C@H]2CC[C@@H](CNC(=S)Nc3cc(C(F)(F)F)ccc3Cl)CC2)nc2ccccc12 [compound 677]	3 (Class 3: The value of percent of control at 10^−7 M was more than 60% or the value of IC50 was more than 200 nM.)
CN(C)c1nc(N[C@H]2CC[C@@H](CNC(=S)NCc3ccccc3Cl)CC2)nc2ccccc12 [compound 678]	3 (Class 3: The value of percent of control at 10^−7 M was more than 60% or the value of IC50 was more than 200 nM.)
CCc1cccc(C)c1NC(=S)NC[C@H]1CC[C@@H](Nc2nc(N(C)C)c3ccccc3n2)CC1 [compound 679]	2 (Class 2: The value of percent of control at 10^−7 M was from 40% to 60% or the value of IC50 was from 50 nM to 200 nM.)
CC(C)c1ccccc1NC(=S)NC[C@H]1CC[C@@H](Nc2nc(N(C)C)c3ccccc3n2)CC1 [compound 680, N-[(cis-4-{[4-(dimethylamino)quinazolin-2-yl]amino}cyclohexyl)methyl]-N′-(2-isopropylphenyl)thiourea]	2 (Class 2: The value of percent of control at 10^−7 M was from 40% to 60% or the value of IC50 was from 50 nM to 200 nM.)
CSc1cccc(NC(=S)NC[C@H]2CC[C@@H](Nc3nc(N(C)C)c4ccccc4n3)CC2)c1 [compound 681]	3 (Class 3: The value of percent of control at 10^−7 M was more than 60% or the value of IC50 was more than 200 nM.)
CN(C)c1nc(N[C@H]2CC[C@@H](CNC(=S)NCc3ccc(Cl)c(Cl)c3)CC2)nc2ccccc12 [compound 682]	3 (Class 3: The value of percent of control at 10^−7 M was more than 60% or the value of IC50 was more than 200 nM.)
COc1cc(NC(=S)NC[C@H]2CC[C@@H](Nc3nc(N(C)C)c4ccccc4n3)CC2)cc(OC)c1 [compound 683]	3 (Class 3: The value of percent of control at 10^−7 M was more than 60% or the value of IC50 was more than 200 nM.)
Cc1cc(C)cc(NC(=S)NC[C@H]2CC[C@@H](Nc3nc(N(C)C)c4ccccc4n3)CC2)c1 [compound 684]	3 (Class 3: The value of percent of control at 10^−7 M was more than 60% or the value of IC50 was more than 200 nM.)
CN(C)c1nc(N[C@H]2CC[C@@H](CNC(=S)Nc3cccc(OCc4ccccc4)c3)CC2)nc2ccccc12 [compound 685]	3 (Class 3: The value of percent of control at 10^−7 M was more than 60% or the value of IC50 was more than 200 nM.)
CN(C)c1nc(N[C@H]2CC[C@@H](CNC(=S)Nc3cccc(C(=O)O)c3)CC2)nc2ccccc12 [compound 686]	3 (Class 3: The value of percent of control at 10^−7 M was more than 60% or the value of IC50 was more than 200 nM.)
Cc1ccc(NC(=S)NC[C@H]2CC[C@@H](Nc3nc(N(C)C)c4ccccc4n3)CC2)cc1Cl [compound 687]	3 (Class 3: The value of percent of control at 10^−7 M was more than 60% or the value of IC50 was more than 200 nM.)
COC(=O)c1cccc(NC(=S)NC[C@H]2CC[C@@H](Nc3nc(N(C)C)c4ccccc4n3)CC2)c1 [compound 688]	3 (Class 3: The value of percent of control at 10^−7 M was more than 60% or the value of IC50 was more than 200 nM.)
CN(C)c1nc(N[C@H]2CC[C@@H](CNC(=S)NCCCc3ccccc3)CC2)nc2ccccc12 [compound 689]	3 (Class 3: The value of percent of control at 10^−7 M was more than 60% or the value of IC50 was more than 200 nM.)
